Laboratory results published in patent US20020013349A1, “Methods for treating or preventing pain and anxiety” (priority 1999, published 2002).

System: rats
Type: in vivo, rat
Conditions: positive control; versus mean on baseline days
Procedure: The standard test in rat to measure anxiolytic effect (Geller conflict procedure) was designed by Geller and Seifter and modified by Pollard and Howard (Geller & Seifter, Psychophamracologia 1:482-492 (1960: Pollard & Howard, Psychopharmacology 62:117-121 (1979)). The anxiety-reducing effect of a KCNQ2/3 channel opener was measured using the Geller conflict procedure in rats. Rats are trained to press a lever to receive food pellets during daily 1 hour sessions. The sessions are divided into punished and unpunished phases. During the four, three-minute punished periods, a light signals that each lever press will produce both a pellet and a foot shock (punishment), which reduces lever pressing. The number of punished lever presses on test days (when test compound is administered) is compared to the mean on baseline days. […]

SMILES: CNC1=Nc2ccc(Cl)cc2C(c2ccccc2)=[N+]([O-])C1 [chlordiazepoxide]
- increase in punished lever pressing: > 50%
